Reference: paper PMC4414180, “SKI2162, an inhibitor of the TGF-β type I receptor (ALK5), inhibits radiation-induced fibrosis in mice” (Oncotarget, 2015)

What was measured:
p38 MAPK = target: T1, p38 MAPK (Homo sapiens, UniProt Q16539); experiment: p38 MAPK selectivity, radioisotope-based (33P) kinase assay; assay type: biochemical; settings: Supplementary Table 1, unit inferred
T1 construct: GST/histidine tag; made in house; host or cells: insect cells
Protocol: (§1) The kinase activity of ALK5, ALK1, and p38 MAPK were assessed by measuring radiolabelled phosphate (^33P) incorporation into casein. ALK1 and p38 MAPK are closely related to ALK5, and were used for comparison with ALK5 in a SKI2162 selectivity study. IC50 values were calculated from dose–response curves. […]
(§2) www.impactjournals.com/oncotarget/ Oncotarget, Advance Publications 2014 SUPPLEMENTARY METHODS AND MATERIALS
(§3) Cell culture and reagents ACC-3′ (reverse). All samples were normalized to A human keratinocyte cell line (HaCaT) and GAPDH and expressed as the fold induction. Relative an SV40-transformed human fibroblast cell line expression levels were calculated using the comparative (WI38VA13) were cultured in Minimum Essential threshold method. All reactions were done in triplicate.
(§4) Media (Gibco/Life Technologies, USA) or in Dulbecco’s Histopathologic evaluation and fibrosis-related Modified Eagle’s Medium (Gibco/Life Technologies, gene expression in RIF tissues USA), respectively, with 10% fetal bovine serum (Gibco/
(§5) Life Technologies, USA), in a humidified 5% CO2 The skin and soft tissue of the irradiated leg was […]

ALK1 = target: T2, ALK1 (Homo sapiens, UniProt P37023); experiment: ALK1 selectivity, radioisotope-based (33P) kinase assay; assay type: biochemical; settings: Supplementary Table 1, unit inferred
T2 construct: GST/histidine tag; made in house; host or cells: insect cells
Protocol: as §1, §2, §3, §4, §5

T2 sequence (P37023 22-503, species assumed): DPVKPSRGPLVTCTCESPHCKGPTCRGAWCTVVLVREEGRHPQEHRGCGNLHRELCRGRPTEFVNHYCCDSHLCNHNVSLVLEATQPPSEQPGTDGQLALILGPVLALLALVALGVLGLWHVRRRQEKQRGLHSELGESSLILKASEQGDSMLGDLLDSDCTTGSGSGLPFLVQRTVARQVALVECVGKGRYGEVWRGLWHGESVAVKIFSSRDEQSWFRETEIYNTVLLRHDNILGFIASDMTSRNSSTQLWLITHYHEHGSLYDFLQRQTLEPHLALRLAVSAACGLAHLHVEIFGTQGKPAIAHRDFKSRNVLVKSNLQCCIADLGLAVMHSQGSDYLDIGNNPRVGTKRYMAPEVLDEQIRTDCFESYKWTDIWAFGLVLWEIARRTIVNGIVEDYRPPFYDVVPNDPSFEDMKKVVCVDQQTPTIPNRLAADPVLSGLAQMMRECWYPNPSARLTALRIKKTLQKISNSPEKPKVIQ
T1 sequence (Q16539 whole entry): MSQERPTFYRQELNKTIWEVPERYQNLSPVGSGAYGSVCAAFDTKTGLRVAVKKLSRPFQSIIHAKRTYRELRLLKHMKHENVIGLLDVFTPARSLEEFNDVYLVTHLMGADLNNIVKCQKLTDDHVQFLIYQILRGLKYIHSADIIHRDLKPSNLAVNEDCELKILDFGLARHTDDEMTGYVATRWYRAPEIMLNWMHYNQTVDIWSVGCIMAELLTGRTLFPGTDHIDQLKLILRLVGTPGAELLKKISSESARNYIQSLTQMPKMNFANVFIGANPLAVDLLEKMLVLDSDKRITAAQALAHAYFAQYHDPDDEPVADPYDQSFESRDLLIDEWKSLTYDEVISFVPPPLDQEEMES

- IC50 (p38 MAPK): 0.379 µM
- IC50 (ALK1): 9.9 µM
Compound: Cc1cccc(-c2nn3c(c2-c2ccnc4ccc(C(N)=O)cc24)CCC3)n1 [LY2157299]
